We go through 19 compounds from patent US9024017B2, “Octahydro-cyclopentapyrrolyl antagonists of CCR2” (Janssen Pharmaceutica NV, priority 2012, dated 2015).

For orientation: IC50 means the concentration that inhibits the measured activity by half.

This assay concerns the target T1, CCR2 (Homo sapiens, UniProt P41597).
T1 construct: host or cells: THP-1 (human monocytic cell line)
The assay is described as follows: MCP-1 Receptor Binding Assay in THP-1 Cells. As to conditions: read-out: MCP1B_v3 IC50. How it is done: Compounds of the invention were subjected to various representative biological tests. […] MCP-1 Receptor Binding Assay in THP-1 Cells Human monocytic cell line THP-1 cells were obtained from American Type Culture Collection (Manassas, Va., USA). The THP-1 cells were grown in RPMI-1640 (RPMI: Roswell Park Memorial Institute Medium-cell culture growth media) supplemented with 10% fetal bovine serum in a humidified 5% CO2 atmosphere at 37° C. The cell density was maintained between […].
THP-1 (cells were incubated with 0.5 nM ^125I labeled MCP-1 (Perkin-Elmer Life Sciences, Inc. Boston, Mass.) in the presence of varying concentrations of either unlabeled MCP-1 (R & D Systems, Minneapolis, Minn.) or test compound for 2 hours at 30° C. in a 96 well plate. Cells were then harvested onto a filter plate, dried, and 20 μL of Microscint 20 was added to each well. Plates were counted in a TopCount NXT, Microplate Scintillation & Luminescence Counter (Perkin-Elmer Life Sciences, Inc. Boston, Mass.). Blank values (buffer only) were subtracted from all values and drug treated values were compared to vehicle treated values. 1 μM cold MCP-1 was used for nonspecific binding.

The structures appear in SMILES notation.

T1 sequence (P41597 whole entry): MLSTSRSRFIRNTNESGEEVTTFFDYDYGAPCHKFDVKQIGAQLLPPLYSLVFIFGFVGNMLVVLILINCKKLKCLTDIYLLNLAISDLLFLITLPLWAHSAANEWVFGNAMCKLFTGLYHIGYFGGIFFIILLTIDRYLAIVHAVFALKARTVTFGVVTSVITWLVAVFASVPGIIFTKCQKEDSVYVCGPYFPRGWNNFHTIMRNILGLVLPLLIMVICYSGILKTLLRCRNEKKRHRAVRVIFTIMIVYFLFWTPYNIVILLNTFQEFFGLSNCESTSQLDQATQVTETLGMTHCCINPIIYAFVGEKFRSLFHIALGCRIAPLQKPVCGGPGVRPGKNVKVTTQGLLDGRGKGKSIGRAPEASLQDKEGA

Take `COC1COCCC1N[C@@H]1C[C@H]2CN(C(=O)OCCN(C)C)C[C@@]2(C(=O)N2CCc3ncc(C(F)(F)F)cc3C2)C1` (relative stereo) [Example 54, (3aR,5R,6aR)-2-(Dimethylamino)ethyl 5-(((3S*,4S*)-3-methoxytetrahydro-2H-pyran-4-yl)amino)-3a-(3-(trifluoromethyl)-5,6,7,8-tetrahydro-1,6-naphthyridine-6-carbonyl)-hexahydrocyclopenta[c]pyrrole-2(1H)-carboxylate]: the 50% inhibitory concentration (IC50) came to 150 nM.
To `COC1COCCC1N[C@@H]1C[C@H]2CN(C(N)=O)C[C@@]2(C(=O)NCc2cc(F)cc(C(F)(F)F)c2)C1` (relative stereo) [Example 11, (3aR,5R,6aR)-N^3a-(3-Fluoro-5-(trifluoromethyl)benzyl)-5-(((3S*,4S*)-3-methoxytetrahydro-2H-pyran-4-yl)amino)hexahydrocyclopenta[c]pyrrole-2,3a(1H)-dicarboxamide] belongs 320 nM; to `COC1COCCC1N[C@@H]1C[C@H]2CN(C#N)C[C@@]2(C(=O)N2CCc3ncc(C(F)(F)F)cc3C2)C1` (relative stereo) [Example 117, (3aR,5R,6aR)-5-(((3S*,4S*)-3-Methoxytetrahydro-2H-pyran-4-yl)amino)-3a-(3-(trifluoromethyl)-5,6,7,8-tetrahydro-1,6-naphthyridine-6-carbonyl)hexahydrocyclopenta[c]pyrrole-2(1H)-carbonitrile], 5400 nM; to `COC1COCCC1N[C@@H]1C[C@H]2CN(C(=O)OCC3CCOCC3)C[C@@]2(C(=O)N2CCc3ncc(C(F)(F)F)cc3C2)C1` (relative stereo) [Example 47, (3aR,5R,6aR)-(Tetrahydro-2H-pyran-4-yl)methyl 5-(((3S*,4S*)-3-methoxytetrahydro-2H-pyran-4-yl)amino)-3a-(3-(trifluoromethyl)-5,6,7,8-tetrahydro-1,6-naphthyridine-6-carbonyl)hexahydrocyclopenta[c]pyrrole-2(1H)-carboxylate], 30 nM.
To `COCCN[C@@H]1C[C@H]2CN(C(N)=O)C[C@@]2(C(=O)N2CCc3ncc(C(F)(F)F)cc3C2)C1` [Example 7] belongs 5060 nM; to `COCCOC(=O)N1C[C@@H]2C[C@@H](NC3CCOCC3OC)C[C@]2(C(=O)N2CCc3ncc(C(F)(F)F)cc3C2)C1` (relative stereo) [Example 48, (3aR,5R,6aR)-2-Methoxyethyl 5-(((3S*,4S*)-3-methoxytetrahydro-2H-pyran-4-yl)amino)-3a-(3-(trifluoromethyl)-5,6,7,8-tetrahydro-1,6-naphthyridine-6-carbonyl)hexahydrocyclopenta[c]pyrrole-2(1H)-carboxylate], 80 nM; to `COC1COCCC1N[C@@H]1C[C@H]2CN(C3=NCCS3)C[C@@]2(C(=O)N2CCc3ncc(C(F)(F)F)cc3C2)C1` (relative stereo) [Example 112, ((3aR,5R,6aR)-2-(4,5-Dihydrothiazol-2-yl)-5-(((3S*,4S*)-3-methoxytetrahydro-2H-pyran-4-yl)amino)octahydrocyclopenta[c]pyrrol-3a-yl)(3-(trifluoromethyl)-7,8-dihydro-1,6-naphthyridin-6(5H)-yl)methanone], 3660 nM.
In the case of `CO[C@@H]1COCC[C@@H]1N[C@@H]1C[C@H]2CN(C(=O)OCCC3CCOCC3)C[C@@]2(C(=O)N2CCc3ncc(C(F)(F)F)cc3C2)C1` [Example 43, (3aR,5R,6aR)-2-(Tetrahydro-2H-pyran-4-yl)ethyl 5-(((3S,4S)-3-methoxytetrahydro-2H-pyran-4-yl)amino)-3a-(3-(trifluoromethyl)-5,6,7,8-tetrahydro-1,6-naphthyridine-6-carbonyl)hexahydrocyclopenta[c]pyrrole-2(1H)-carboxylate] it was 30 nM; in that of `COC1COCCC1N[C@@H]1C[C@H]2CN(C(=O)CNC(C)=O)C[C@@]2(C(=O)N2CCc3ncc(C(F)(F)F)cc3C2)C1` (relative stereo) [Example 75, N-(2-((3aR,5R,6aR)-5-(((3S*,4S*)-3-Methoxytetrahydro-2H-pyran-4-yl)amino)-3a-(3-(trifluoromethyl)-5,6,7,8-tetrahydro-1,6-naphthyridine-6-carbonyl)hexahydrocyclopenta-[c]pyrrol-2(1H)-yl)-2-oxoethyl)acetamide], 170 nM; in that of `COC1COCCC1N[C@@H]1C[C@H]2CN(c3nc(C)no3)C[C@@]2(C(=O)N2CCc3ncc(C(F)(F)F)cc3C2)C1` (relative stereo) [Example 111, ((3aR,5R,6aR)-5-(((3S*,4S*)-3-Methoxytetrahydro-2H-pyran-4-yl)amino)-2-(3-methyl-1,2,4-oxadiazol-5-yl)octahydrocyclopenta[c]pyrrol-3a-yl)(3-(trifluoromethyl)-7,8-dihydro-1,6-naphthyridin-6(5H)-yl)methanone], 270 nM.
On to `COC1COCCC1N[C@@H]1C[C@H]2CN(C(=O)CCCN(C)C)C[C@@]2(C(=O)N2CCc3ncc(C(F)(F)F)cc3C2)C1` (relative stereo) [Example 78, 4-(Dimethylamino)-1-((3aR,5R,6aR)-5-(((3S*,4S*)-3-methoxytetrahydro-2H-pyran-4-yl)amino)-3a-(3-(trifluoromethyl)-5,6,7,8-tetrahydro-1,6-naphthyridine-6-carbonyl)-hexahydrocyclopenta[c]pyrrol-2(1H)-yl)butan-1-one], for which the half-maximal inhibitory concentration (IC50) is 230 nM.
For `COC1COCCC1N[C@@H]1C[C@H]2CN(CC(=O)N(C)C)C[C@@]2(C(=O)N2CCc3ncc(C(F)(F)F)cc3C2)C1` (relative stereo) [Example 106, 2-((3aR,5R,6aR)-5-(((3S*,4S*)-3-Methoxytetrahydro-2H-pyran-4-yl)amino)-3a-(3-(trifluoromethyl)-5,6,7,8-tetrahydro-1,6-naphthyridine-6-carbonyl)hexahydrocyclopenta[c]pyrrol-2(1H)-yl)-N,N-dimethylacetamide], the concentration for half-maximal inhibition (IC50) came to 2800 nM.
To `COC1COCCC1N[C@@H]1C[C@H]2CN(S(=O)(=O)CCc3ccccc3)C[C@@]2(C(=O)N2CCc3ncc(C(F)(F)F)cc3C2)C1` (relative stereo) [Example 93, ((3aR,5R,6aR)-5-(((3S*,4S*)-3-Methoxytetrahydro-2H-pyran-4-yl)amino)-2-(phenethylsulfonyl)octahydrocyclopenta[c]pyrrol-3a-yl)(3-(trifluoromethyl)-7,8-dihydro-1,6-naphthyridin-6(5H)-yl)methanone] belongs 980 nM.
Consider `COC1COCCC1N[C@@H]1C[C@H]2CN(C(N)=O)C[C@@]2(C(=O)NCc2cc(C(F)(F)F)cc(C(F)(F)F)c2)C1` (relative stereo) [Example 12, (3aR,5R,6aR)-N^3a-(3,5-Bis(trifluoromethyl)benzyl)-5-(((3S*,4S*)-3-methoxytetrahydro-2H-pyran-4-yl)amino)hexahydrocyclopenta[c]pyrrole-2,3a(1H)-dicarboxamide], for which the IC50 came to 100 nM.
Regarding `COC(=O)N1C[C@@H]2C[C@@H](NC3CCOCC3OC)C[C@]2(C(=O)N2CCc3ncc(C(F)(F)F)cc3C2)C1` (relative stereo) [Example 34, (3aR,5R,6aR)-Methyl 5-(((3S*,4S*)-3-methoxytetrahydro-2H-pyran-4-yl)amino)-3a-(3-(trifluoromethyl)-5,6,7,8-tetrahydro-1,6-naphthyridine-6-carbonyl)hexahydrocyclopenta[c]pyrrole-2(1H)-carboxylate], the half-maximal inhibitory concentration (IC50) is 50 nM.
Regarding `COC1COCCC1N[C@@H]1C[C@H]2CN(C(=O)N(C)C)C[C@@]2(C(=O)N2CCc3ncc(C(F)(F)F)cc3C2)C1` (relative stereo) [Example 21, (3aR,5R,6aR)-5-(((3S*,4S*)-3-Methoxytetrahydro-2H-pyran-4-yl)amino)-N,N-dimethyl-3a-(3-(trifluoromethyl)-5,6,7,8-tetrahydro-1,6-naphthyridine-6-carbonyl)hexahydrocyclopenta[c]pyrrole-2(1H)-carboxamide], the IC50 was found to be 220 nM.
In the case of `COC1COCCC1N[C@@H]1C[C@H]2CN(C(=O)NCc3ccccc3)C[C@@]2(C(=O)N2CCc3ncc(C(F)(F)F)cc3C2)C1` (relative stereo) [Example 17, (3aR,5R,6aR)-N-benzyl-5-(((3S*,4S*)-(3-methoxytetrahydro-2H-pyran-4-yl)amino)-3a-(3-(trifluoromethyl)-5,6,7,8-tetrahydro-1,6-naphthyridine-6-carbonyl)hexahydrocyclopenta-[c]pyrrole-2(1H)-carboxamide] it was 60 nM; in that of `COC1COCCC1N[C@@H]1C[C@H]2CN(C(=O)CCN(C)C)C[C@@]2(C(=O)N2CCc3ncc(C(F)(F)F)cc3C2)C1` (relative stereo) [Example 77, 3-(Dimethylamino)-1-((3aR,5R,6aR)-5-(((3S*,4S*)-3-methoxytetrahydro-2H-pyran-4-yl)amino)-3a-(3-(trifluoromethyl)-5,6,7,8-tetrahydro-1,6-naphthyridine-6-carbonyl)hexahydrocyclopenta[c]pyrrol-2(1H)-yl)propan-1-one], 230 nM; in that of `COC1COCCC1N[C@@H]1C[C@H]2CN(CCCc3ccccc3)C[C@@]2(C(=O)N2CCc3ncc(C(F)(F)F)cc3C2)C1` (relative stereo) [Example 103, ((3aR,5R,6aR)-5-(((3S*,4S*)-3-Methoxytetrahydro-2H-pyran-4-yl)amino)-2-(3-phenylpropyl)octahydrocyclopenta[c]pyrrol-3a-yl)(3-(trifluoromethyl)-7,8-dihydro-1,6-naphthyridin-6(5H)-yl)methanone], 1000 nM.
